The values below come from patent US20250332096A1, “BEVERAGE FORMULATION AND METHOD OF PROMOTING CELLULAR HYDRATION BY ENHANCING INTRACELLULAR PERMEATION” (Eastpond Laboratories Limited, priority 2024, published 2025).

Series [1] has as its system C. elegans. In words: C. elegans longevity in hydration modified water (Example 5). In kind it is in vivo. As to conditions: for effect on C. elegans survival: added to the culture media; for Animals alive, % of initial: 0.1% w/w in nutritive media, USA I water. The protocol: C. elegans nematodes were grown in petri-type dishes containing normal nutrient liquid media prepared alternatively with USA I water (described in Example 2) lacking any further additive component (control) or the same water supplemented with a parent α-, β-, or γ-cyclodextrin, and/or a bioactive agent, as an active component of cellular hydration. Fifty ±3 worms were transferred to each dish. Each condition was repeated in triplicate. Experiments were repeated for USA II and BP I waters described in Example 2.
• A. Addition of parent α-, β- and γ-cyclodextrins. • B. Addition of L-arginine and nicotinamide. • C. Addition of inclusion complexes of cyclodextrins with L-arginine and nicotinamide.

Series [2] deals with Wheat seeds (Triticum aestivum). The experiment in a line: Wheat seed germination. In kind it is in vivo. The following applies: 0.5% w/w in USA I water. As for the experimental part: Wheat seeds (Triticum aestivum) were germinated using USA I, USA II, and BP I waters described for Example 2. Germination rate using un-supplemented (control) water was compared to that with the same water variously supplemented with a cyclodextrin component, and/or a bioactive agent, as an active component of cellular hydration. For each condition, ten seeds were placed in continuous water contact in a Petri-type dish kept at 25 C in 12 hr light/dark cycles. Photometric images were recorded on days 1 to 6 after seeding. The percentage of seeds germinated was calculated and compared as a function of time and of the applied additive concentrations.
Water samples for seed germination were used alone with no additive, or containing cyclodextrins, or containing clathrate inclusion complexes of cyclodextrin with L-arginine or with nicotinamide (both obtained from Sigma Chemical Co.; St. Louis, MO), or with L-carnitine (from Lonza AG; Switzerland). […] Additive solutions were prepared fresh on the day of germination start.
Parent cyclodextrins α-cyclodextrin (ACD), β-cyclodextrin (BCD), and γ-cyclodextrin (GCD), were obtained from Wacker Chemie (Munich, Germany). The following derivatized cyclodextrins were obtained from Cyclolab Ltd. (Budapest, Hungary): hydroxypropylated-beta-cyclodextrin (DS-3)(HPBCD), carboxymethylated-β-cyclodextrin (DS-3.5)(CMBCD), 2-hydroxy-3-N,N,N-trimethylamino)propyl-β-cyclodextrin chloride (DS-3.6)(QABCD).
Germination kinetics in control and additive-modified water under identical conditions were quantified as the percentage of the seeds having a sprout. Each determination consisted of 100 seeds for each parameter. Results are reported in Table 5, below, and in FIGS. 11-13. • A) Cyclodextrin/L-Arg Inclusion Complex Increases Seed Germination.

Series [3] in a line: Water bonding detected by NIR spectroscopy. The following applies: wavelength region 900-1200 nm; 0.1%-5% w/w. In kind it is physicochemical.
Series [4] in a line: Water bonding detected by NIR spectroscopy. The series is classed as physicochemical. The following applies: for water-bond interactions, second-derivative NIR spectra: 0.1%-5% w/w. The protocol:
Hydration bond energies in pure waters and solutions of the same waters containing cyclodextrin compounds were assayed using IR spectroscopy in the near and middle infrared ranges. To record linear signals throughout an entire wavelength range, attenuation from water absorbance was minimized with a short optical length cuvette. NIR range spectra were registered on a FOSS NIR Systems, Inc. 6500 spectrometer and Sample Transport Module (STM) using a 1 mm-sized cuvette. Transmission spectra were collected from 1100-2498 nm using a lead sulfide (PbS) detector and Vision 2.51 software (2001; FOSS NIRSystems, Inc.) A Perkin-Elmer Spectrum 400 FT-NIR/FT-IR spectrometer and UATR (Universal Attenuated Total Reflectance; ZnSe-diamond crystal, 1× flat top plate) sample handling unit were used to obtain spectra across 2500-15385 nm (reported as 4000-650 cm^1). Measurements were performed at 24 C using a triglycine-sulfate (TGS) detector and Spectrum ES 6.3.2 software (PerkinElmer, 2008). Three samples of water were used in the present study. A first water sample was purified by reverse osmosis, carbon filtration, ultraviolet light exposure, membrane filtration to 0.2 micron absolute, and ozonation. Second and third water samples were not purified. […] No. CYL-2322. • β-cyclodextrin (βCD also denoted as BCD). Lot. No. CYL-2518/2. • γ-cyclodextrin (γCD also denoted as GCD), Lot. No. […] No. […] No. CYL-2258. • carboxymethyl-β-cyclodextrin (CMBCD), Lot. No. CYL-2576. • quaternary-ammonium-β-cyclodextrin (QABCD).

For `N=C(N)NCCC[C@H](N)C(=O)O` [L-arginine, reference compound], the “effect on C. elegans survival” value in series [1] is on record as “little effect”.

As for `NC(=O)c1cccnc1` [nicotinamide, reference compound], in series [1], the “effect on C. elegans survival” value was “little effect”. Further, the “wheat seed germination, percentage of the seeds having a sprout” value in series [2] (day 0) is listed as 0%; in series [2] (day 1), 0%; in series [2] (day 2) it was 4%; in series [2] (day 3), 10%; in series [2] (day 4), 60%.

As for `OC[C@H]1O[C@@H]2O[C@H]3[C@H](O)[C@@H](O)[C@@H](O[C@H]4[C@H](O)[C@@H](O)[C@@H](O[C@H]5[C@H](O)[C@@H](O)[C@@H](O[C@H]6[C@H](O)[C@@H](O)[C@@H](O[C@H]7[C@H](O)[C@@H](O)[C@@H](O[C@H]8[C@H](O)[C@@H](O)[C@@H](O[C@H]1[C@H](O)[C@H]2O)O[C@@H]8CO)O[C@@H]7CO)O[C@@H]6CO)O[C@@H]5CO)O[C@@H]4CO)O[C@@H]3CO` [β-Cyclodextrin, β-cyclodextrin], the “Animals alive, % of initial” value was 100 % of initial in series [1] (life span 10 days), 18 % of initial in series [1] (life span 15 days) and 0 % of initial in series [1] (life span 18 days).

For the molecule `CC(O)COC[C@H]1O[C@@H]2O[C@H]3[C@H](O)[C@@H](O)[C@@H](O[C@H]4[C@H](O)[C@@H](O)[C@@H](O[C@H]5[C@H](O)[C@@H](O)[C@@H](O[C@H]6[C@H](O)[C@@H](O)[C@@H](O[C@H]7[C@H](O)[C@@H](O)[C@@H](O[C@H]8[C@H](O)[C@@H](O)[C@@H](O[C@H]1[C@H](O)[C@H]2O)O[C@@H]8COCC(C)O)O[C@@H]7COCC(C)O)O[C@@H]6COCC(C)O)O[C@@H]5COCC(C)O)O[C@@H]4COCC(C)O)O[C@@H]3COCC(C)O` (stereo partly drawn) [HP-β-Cyclodextrin, 2-hydroxypropyl-β-cyclodextrin], the results for the “Animals alive, % of initial” value in series [1] (life span 10 days), in series [1] (life span 15 days) and in series [1] (life span 18 days) were 96 % of initial, 17 % of initial and 0 % of initial, respectively. For the same molecule, the “water-bond interactions, second-derivative NIR spectra” value (shortened to “water-bond interactions”) is given as “further significantly modified” in series [3], “significantly modified” in series [4] (1200-1500 nm), “significantly modified” in series [4] (1620-1710 nm) and “significantly modified” in series [4] (2170-2370 nm).

Consider “2-hydroxy-3-N,N,N-trimethylamino)propyl-β-cyclodextrin chloride [Quaternary-ammonium-β-Cyclodextrin]”, for which the “Animals alive, % of initial” value is 98 % of initial in series [1] (life span 10 days), 13 % of initial in series [1] (life span 15 days) and 2 % of initial in series [1] (life span 18 days). For the same molecule, the “water-bond interactions” value was “significantly modified” in series [3], “significantly modified” in series [4] (1200-1500 nm), “significantly modified” in series [4] (1620-1710 nm) and “further significantly modified” in series [4] (2170-2370 nm). Also, the “modification of micro-structure of hydrogen bonded cluster systems in bulk water (spectral changes)” value in series [4] (comparison among cyclodextrin-treated water samples) is on record as “largest”.

Take carboxymethyl-β-cyclodextrin: the “Animals alive, % of initial” value in series [1] (life span 10 days) is reported as 94 % of initial; in series [1] (life span 15 days) it was 11 % of initial; in series [1] (life span 18 days) it was 0 % of initial. The “water-bond interactions” value in series [3] is reported as “further significantly modified”; in series [4] (1200-1500 nm), “further significantly modified”; in series [4] (1620-1710 nm), “significantly modified”; in series [4] (2170-2370 nm), “significantly modified”.
